Results reported in PMC3535334 (Nature Communications, 2012).

Biological target: Nano-lantern (ATP1)
Conditions: 20 nM protein, 50 mM HEPES pH 7.2, coelenterazine-h 1-10 μM

Kd: 300 µM
SMILES: Nc1ncnc2c1ncn2[C@@H]1O[C@H](COP(=O)(O)OP(=O)(O)OP(=O)(O)O)[C@@H](O)[C@H]1O [ATP]
